In PMC5218480 (PLoS ONE, 2017):

System: MV-4-11 cells
Experiment: Gene expression microarray analysis (Affymetrix PrimeView) and GSEA
Assay type: cell-based, human
Parameters: RFU PODN (11730768_x_at) / Fold change /veh PODN (11730768_x_at) / RFU LINC00158 (11744669_a_at) / Fold change /veh LINC00158 (11744669_a_at) / RFU DUSP10 (11751237_a_at) / Fold change /veh DUSP10 (11751237_a_at) / RFU ID3 (11757404_x_at) / Fold change /veh ID3 (11757404_x_at) / RFU PLEKHG5 (11737974_s_at) / Fold change /veh PLEKHG5 (11737974_s_at) / RFU LRRC4B (11730491_at) / Fold change /veh LRRC4B (11730491_at) / RFU GIMAP4 (11747438_a_at) / Fold change /veh GIMAP4 (11747438_a_at) / RFU KRT8 (11758183_x_at) / Fold change /veh KRT8 (11758183_x_at) / RFU CNN1 (11734310_a_at) / Fold change /veh CNN1 (11734310_a_at) / RFU VPS37D (11726825_at) / Fold change /veh VPS37D (11726825_at) / RFU C10orf10 (11716522_x_at) / Fold change /veh C10orf10 (11716522_x_at) / RFU KIR2DL2 /// KIR2DL4 /// KIR2DL5A /// KIR2DL5B /// KIR2DS1 /// KIR2DS2 /// KIR2DS3 /// KIR2DS4 /// KIR3DL3 /// KIR3DL3 /// KIR3DS1 (11738374_at) / Fold change /veh KIR2DL2 /// KIR2DL4 /// KIR2DL5A /// KIR2DL5B /// KIR2DS1 /// KIR2DS2 /// KIR2DS3 /// KIR2DS4 /// KIR3DL3 /// KIR3DL3 /// KIR3DS1 (11738374_at) / RFU C1QL1 (11718748_at) / Fold change /veh C1QL1 (11718748_at) / RFU TMPRSS4 (11747572_a_at) / Fold change /veh TMPRSS4 (11747572_a_at) / RFU HAMP (11756126_x_at) / Fold change /veh HAMP (11756126_x_at) / RFU RNFT2 (11725882_a_at) / Fold change /veh RNFT2 (11725882_a_at) / RFU NR4A2 (11747474_a_at) / Fold change /veh NR4A2 (11747474_a_at) / RFU ABCC12 (11746883_a_at) / Fold change /veh ABCC12 (11746883_a_at) / RFU TMEM136 (11760407_x_at) / Fold change /veh TMEM136 (11760407_x_at) / RFU CLDN22 /// WWC2 (11732394_at) / Fold change /veh CLDN22 /// WWC2 (11732394_at) / RFU HLA-DPB1 (11760878_x_at) / Fold change /veh HLA-DPB1 (11760878_x_at) / RFU SPINT1 (11716480_a_at) / Fold change /veh SPINT1 (11716480_a_at) / RFU GAP43 (11754022_s_at) / Fold change /veh GAP43 (11754022_s_at) / RFU A4GNT (11735810_at) / Fold change /veh A4GNT (11735810_at) / RFU PRB3 (11715151_x_at) / Fold change /veh PRB3 (11715151_x_at) / RFU TUBB4B (11761932_at) / Fold change /veh TUBB4B (11761932_at) / RFU CAPN14 (11732068_a_at) / Fold change /veh CAPN14 (11732068_a_at) / RFU TMCC2 (11721928_a_at) / Fold change /veh TMCC2 (11721928_a_at) / RFU IRGQ (11745062_a_at) / Fold change /veh IRGQ (11745062_a_at) / RFU FAM174B (11720279_a_at) / Fold change /veh FAM174B (11720279_a_at) / RFU TMPRSS4 (11748680_a_at) / Fold change /veh TMPRSS4 (11748680_a_at) / RFU FAM212B (11763350_a_at) / Fold change /veh FAM212B (11763350_a_at) / RFU PLEKHG5 (11743358_a_at) / Fold change /veh PLEKHG5 (11743358_a_at) / RFU ZSCAN30 (11745921_a_at) / Fold change /veh ZSCAN30 (11745921_a_at) / RFU CMKLR1 (11741424_a_at) / Fold change /veh CMKLR1 (11741424_a_at) / RFU LOC101060620 /// MAPK8IP1 (11723275_at) / Fold change /veh LOC101060620 /// MAPK8IP1 (11723275_at) / RFU SPTSSB (11747773_x_at) / Fold change /veh SPTSSB (11747773_x_at) / RFU PRSS12 (11739890_at) / Fold change /veh PRSS12 (11739890_at) / RFU BIN1 (11741810_x_at) / Fold change /veh BIN1 (11741810_x_at) / RFU WNT11 (11732464_a_at) / Fold change /veh WNT11 (11732464_a_at) / RFU C10orf10 (11716521_a_at) / Fold change /veh C10orf10 (11716521_a_at) / RFU C5orf56 (11738089_at) / Fold change /veh C5orf56 (11738089_at) / RFU CYB561 (11721691_x_at) / Fold change /veh CYB561 (11721691_x_at) / RFU ANKRD19P (11752326_a_at) / Fold change /veh ANKRD19P (11752326_a_at) / RFU OR2T12 /// OR2T33 /// OR2T8 (11738714_s_at) / Fold change /veh OR2T12 /// OR2T33 /// OR2T8 (11738714_s_at) / RFU VCAN (11748164_a_at) / Fold change /veh VCAN (11748164_a_at) / RFU JSRP1 (11732532_at) / Fold change /veh JSRP1 (11732532_at) / RFU KRTAP10-11 (11738290_x_at) / Fold change /veh KRTAP10-11 (11738290_x_at) / RFU MYO3A (11730013_a_at) / Fold change /veh MYO3A (11730013_a_at) / RFU EBF3 (11725865_a_at) / Fold change /veh EBF3 (11725865_a_at) / RFU CAMK2N1 (11719241_x_at) / Fold change /veh CAMK2N1 (11719241_x_at) / RFU C5orf56 (11738088_a_at) / Fold change /veh C5orf56 (11738088_a_at) / RFU OLFML3 (11715873_a_at) / Fold change /veh OLFML3 (11715873_a_at) / RFU LOC100653217 /// NTM (11731650_a_at) / Fold change /veh LOC100653217 /// NTM (11731650_a_at) / RFU MAPK11 (11762145_a_at) / Fold change /veh MAPK11 (11762145_a_at) / RFU FIZ1 (11724087_x_at) / Fold change /veh FIZ1 (11724087_x_at) / RFU OASL (11726364_x_at) / Fold change /veh OASL (11726364_x_at) / RFU SOX15 (11748057_x_at) / Fold change /veh SOX15 (11748057_x_at) / RFU CD79A (11719716_a_at) / Fold change /veh CD79A (11719716_a_at) / RFU HIST1H1D (11736915_at) / Fold change /veh HIST1H1D (11736915_at) / RFU CASKIN2 (11723855_a_at) / Fold change /veh CASKIN2 (11723855_a_at) / RFU LOC730098 (11760151_x_at) / Fold change /veh LOC730098 (11760151_x_at) / RFU OR4N2 (11742367_at) / Fold change /veh OR4N2 (11742367_at) / RFU PRRT2 (11749266_a_at) / Fold change /veh PRRT2 (11749266_a_at) / RFU SNX32 (11753110_a_at) / Fold change /veh SNX32 (11753110_a_at) / RFU CDHR5 (11726645_a_at) / Fold change /veh CDHR5 (11726645_a_at) / RFU RCAN1 (11760418_a_at) / Fold change /veh RCAN1 (11760418_a_at) / RFU FAM167A (11723789_a_at) / Fold change /veh FAM167A (11723789_a_at) / RFU FAM26E (11764081_at) / Fold change /veh FAM26E (11764081_at) / RFU ISYNA1 (11749810_s_at) / Fold change /veh ISYNA1 (11749810_s_at) / RFU ACY1 (11761880_at) / Fold change /veh ACY1 (11761880_at) / RFU 11764098_at / Fold change /veh 11764098_at / RFU SAMD14 (11745864_x_at) / Fold change /veh SAMD14 (11745864_x_at) / RFU NPB (11741838_a_at) / Fold change /veh NPB (11741838_a_at) / RFU TMPRSS6 (11731388_a_at) / Fold change /veh TMPRSS6 (11731388_a_at) / RFU KRTAP10-2 (11738614_at) / Fold change /veh KRTAP10-2 (11738614_at) / RFU ARHGAP8 /// PRR5-ARHGAP8 (11727945_x_at) / Fold change /veh ARHGAP8 /// PRR5-ARHGAP8 (11727945_x_at) / RFU KRTAP5-7 /// NADSYN1 (11734609_at) / Fold change /veh KRTAP5-7 /// NADSYN1 (11734609_at) / RFU RASL12 (11751679_a_at) / Fold change /veh RASL12 (11751679_a_at) / RFU CDKN2B (11736163_a_at) / Fold change /veh CDKN2B (11736163_a_at) / RFU PRF1 (11729649_at) / Fold change /veh PRF1 (11729649_at) / RFU, ZNF638 /// ZNF638-IT1 / Fold change vs veh, ZNF638 /// ZNF638-IT1 / RFU, PANK3 / Fold change vs veh, PANK3 / RFU, SH3YL1 / Fold change vs veh, SH3YL1 / RFU, ZEB2 / Fold change vs veh, ZEB2 / RFU, NRIP1 / Fold change vs veh, NRIP1 / RFU, PTTG1IP / Fold change vs veh, PTTG1IP / RFU, CAPN2 / Fold change vs veh, CAPN2 / RFU, MED14 / Fold change vs veh, MED14 / RFU, SNORA58 / Fold change vs veh, SNORA58 / RFU, C1orf63 / Fold change vs veh, C1orf63 / RFU, LRRFIP1 / Fold change vs veh, LRRFIP1 / RFU, NDUFAF7 / Fold change vs veh, NDUFAF7 / RFU, SLC12A2 / Fold change vs veh, SLC12A2 / RFU, IBTK / Fold change vs veh, IBTK / RFU, ESF1 / Fold change vs veh, ESF1 / Fold change vs veh, TMEM50B / RFU, TAOK1 / Fold change vs veh, TAOK1 / RFU, ACBD3 / Fold change vs veh, ACBD3 / RFU, TMA16 / Fold change vs veh, TMA16 / RFU, RWDD3 / Fold change vs veh, RWDD3 / RFU, BCAT1 / Fold change vs veh, BCAT1 / RFU, EDEM3 / Fold change vs veh, EDEM3 / RFU, TMEM33 / Fold change vs veh, TMEM33 / RFU, WDR75 / Fold change vs veh, WDR75 / RFU, AHCTF1 / Fold change vs veh, AHCTF1 / RFU, TFRC / Fold change vs veh, TFRC / RFU, ZDHHC17 / Fold change vs veh, ZDHHC17 / RFU, NOM1 / Fold change vs veh, NOM1 / RFU, ARL8B / Fold change vs veh, ARL8B / RFU, ZBTB11 / Fold change vs veh, ZBTB11 / RFU, TAMM41 / Fold change vs veh, TAMM41 / RFU, KIAA1704 /// LOC100996395 / Fold change vs veh, KIAA1704 /// LOC100996395 / RFU, ING1 / Fold change vs veh, ING1 / RFU, TRMT61B / Fold change vs veh, TRMT61B / RFU, FUBP3 / Fold change vs veh, FUBP3 / RFU, TP53 / Fold change vs veh, TP53 / RFU, TNKS2 / Fold change vs veh, TNKS2 / RFU, ZFP14 / Fold change vs veh, ZFP14 / RFU, ACTR2 / Fold change vs veh, ACTR2 / RFU, PPP3R1 / Fold change vs veh, PPP3R1 / RFU, PIK3R1 / Fold change vs veh, PIK3R1 / RFU, HNRNPA1 / Fold change vs veh, HNRNPA1 / RFU, RNF170 / Fold change vs veh, RNF170 / RFU, ZNF28 / Fold change vs veh, ZNF28 / RFU, RNGTT / Fold change vs veh, RNGTT / RFU, OGT / Fold change vs veh, OGT / RFU, BRD1 / Fold change vs veh, BRD1 / RFU, MARS / Fold change vs veh, MARS / RFU, ZNF655 / Fold change vs veh, ZNF655 / RFU, FAHD1 / Fold change vs veh, FAHD1 / RFU, BDP1 / Fold change vs veh, BDP1 / RFU, LRRCC1 / Fold change vs veh, LRRCC1 / RFU, ARID1A / Fold change vs veh, ARID1A / RFU, ZNF146 / Fold change vs veh, ZNF146 / RFU, ZNF330 / Fold change vs veh, ZNF330 / RFU, GPN3 / Fold change vs veh, GPN3 / RFU, C9orf123 / Fold change vs veh, C9orf123 / RFU, N4BP2L2 / Fold change vs veh, N4BP2L2 / RFU, ARFIP1 / Fold change vs veh, ARFIP1 / RFU, FAM179B / Fold change vs veh, FAM179B / RFU, BCL10 / Fold change vs veh, BCL10 / RFU, UHRF1BP1L / Fold change vs veh, UHRF1BP1L / RFU, BET1 / Fold change vs veh, BET1 / RFU, CNOT2 / Fold change vs veh, CNOT2 / RFU, ZNF268 / Fold change vs veh, ZNF268 / Fold change vs veh, ZNF507 / RFU, DGCR2 / Fold change vs veh, DGCR2 / RFU, WDSUB1 / Fold change vs veh, WDSUB1 / Fold change vs veh, HSP90B1 /// MIR3652 / RFU, ADSS / Fold change vs veh, ADSS / RFU, GK / Fold change vs veh, GK / RFU, ZNF148 / Fold change vs veh, ZNF148 / RFU, TAF9 / Fold change vs veh, TAF9 / RFU, SLC1A5 / Fold change vs veh, SLC1A5 / RFU, SLMO2 / Fold change vs veh, SLMO2 / RFU, ABCC4 / Fold change vs veh, ABCC4 / RFU, LOC101060439 /// RAP1B / Fold change vs veh, LOC101060439 /// RAP1B / RFU, RFX7 / Fold change vs veh, RFX7 / RFU, GTPBP10 / Fold change vs veh, GTPBP10 / RFU, CNEP1R1 / Fold change vs veh, CNEP1R1 / RFU, BIVM-ERCC5 /// ERCC5 / Fold change vs veh, BIVM-ERCC5 /// ERCC5 / RFU, ILF3 / Fold change vs veh, ILF3 / RFU 11762660_at / Fold change /veh 11762660_at / RFU VCAN (11757783_s_at) / Fold change /veh VCAN (11757783_s_at) / RFU DDX43 (11728927_at) / Fold change /veh DDX43 (11728927_at) / RFU KRT8 (11758188_x_at) / Fold change /veh KRT8 (11758188_x_at) / RFU NKD1 (11759106_at) / Fold change /veh NKD1 (11759106_at) / RFU SRD5A1 (11742802_a_at) / Fold change /veh SRD5A1 (11742802_a_at) / RFU TPSAB1 /// TPSB2 (11721975_s_at) / Fold change /veh TPSAB1 /// TPSB2 (11721975_s_at) / RFU GSTM3 (11746129_a_at) / Fold change /veh GSTM3 (11746129_a_at) / RFU IL23R (11737362_x_at) / Fold change /veh IL23R (11737362_x_at) / RFU TMEM51 (11727254_a_at) / Fold change /veh TMEM51 (11727254_a_at) / RFU PIWIL2 (11732686_x_at) / Fold change /veh PIWIL2 (11732686_x_at) / RFU ORM1 (11744905_x_at) / Fold change /veh ORM1 (11744905_x_at) / RFU CCDC152 (11743942_at) / Fold change /veh CCDC152 (11743942_at) / RFU ECM1 (11717891_a_at) / Fold change /veh ECM1 (11717891_a_at) / RFU IL23R (11748794_a_at) / Fold change /veh IL23R (11748794_a_at) / RFU TNFAIP8L3 (11732012_x_at) / Fold change /veh TNFAIP8L3 (11732012_x_at) / RFU MBOAT4 (11741988_at) / Fold change /veh MBOAT4 (11741988_at) / RFU 11764193_at / Fold change /veh 11764193_at / RFU TMEM53 (11763286_at) / Fold change /veh TMEM53 (11763286_at) / RFU MAGEB2 (11727129_at) / Fold change /veh MAGEB2 (11727129_at) / RFU TMEM200A (11744735_a_at) / Fold change /veh TMEM200A (11744735_a_at) / RFU CCDC152 (11751479_a_at) / Fold change /veh CCDC152 (11751479_a_at) / RFU FAM211A (11726209_a_at) / Fold change /veh FAM211A (11726209_a_at) / RFU RGS16 (11746705_a_at) / Fold change /veh RGS16 (11746705_a_at) / RFU VCAN (11755009_s_at) / Fold change /veh VCAN (11755009_s_at) / RFU RHOB (11743442_s_at) / Fold change /veh RHOB (11743442_s_at) / RFU RGS16 (11720943_a_at) / Fold change /veh RGS16 (11720943_a_at) / RFU RGS16 (11720944_at) / Fold change /veh RGS16 (11720944_at) / RFU, VPS4B / Fold change vs veh, VPS4B / RFU, CREB1 / Fold change vs veh, CREB1 / RFU, DNAJC13 / Fold change vs veh, DNAJC13 / RFU, GNAQ / Fold change vs veh, GNAQ / RFU, CDK5R1 / Fold change vs veh, CDK5R1 / RFU, ZRANB3 / Fold change vs veh, ZRANB3 / RFU, CUL4A / Fold change vs veh, CUL4A / RFU, CCNY / Fold change vs veh, CCNY / RFU, UFL1 / Fold change vs veh, UFL1 / RFU, COG3 / Fold change vs veh, COG3 / RFU, DIAPH2 / Fold change vs veh, DIAPH2 / RFU, SKA2 / Fold change vs veh, SKA2 / RFU, AFF3 / Fold change vs veh, AFF3 / RFU, LMF1 / Fold change vs veh, LMF1 / RFU, IPO11 / Fold change vs veh, IPO11 / RFU, DFFB / Fold change vs veh, DFFB / RFU, FOXP1 / Fold change vs veh, FOXP1 / RFU, CARD8 / Fold change vs veh, CARD8 / RFU, STRN3 / Fold change vs veh, STRN3 / RFU, ADK / Fold change vs veh, ADK / RFU, RASSF2 / Fold change vs veh, RASSF2 / RFU, WIPF1 / Fold change vs veh, WIPF1 / RFU, LARP1B / Fold change vs veh, LARP1B / RFU, RASA1 / Fold change vs veh, RASA1 / RFU, RB1 / Fold change vs veh, RB1 / RFU, PPFIA1 / Fold change vs veh, PPFIA1 / RFU, MAT2A / Fold change vs veh, MAT2A / RFU, CCT5 / Fold change vs veh, CCT5 / RFU, WDR92 / Fold change vs veh, WDR92 / RFU, CUX1 / Fold change vs veh, CUX1 / RFU, TTC7A / Fold change vs veh, TTC7A / RFU, TMEM135 / Fold change vs veh, TMEM135 / RFU, DEPTOR / Fold change vs veh, DEPTOR / RFU, CPM / Fold change vs veh, CPM / RFU, DNAJB6 / Fold change vs veh, DNAJB6 / RFU, CACNA2D3 / Fold change vs veh, CACNA2D3 / RFU, DTX4 / Fold change vs veh, DTX4 / RFU, TFCP2 / Fold change vs veh, TFCP2 / RFU, GMCL1 /// GMCL1P1 / Fold change vs veh, GMCL1 /// GMCL1P1 / RFU, AEBP2 / Fold change vs veh, AEBP2 / RFU, SNHG1 /// SNORD22 /// SNORD25 /// SNORD26 /// SNORD27 /// SNORD28 /// SNORD29 /// SNORD31 / Fold change vs veh, SNHG1 /// SNORD22 /// SNORD25 /// SNORD26 /// SNORD27 /// SNORD28 /// SNORD29 /// SNORD31 / Fold change (Aza/veh), C12orf56 (ProbeSet 11735607_a_at) / Fold change (ACY-1035/veh), C12orf56 (ProbeSet 11735607_a_at) / Fold change (Aza/veh), FGFR1OP (ProbeSet 11751329_s_at) / Fold change (ACY-1035/veh), FGFR1OP (ProbeSet 11751329_s_at) / Fold change (Aza/veh), VPS36 (ProbeSet 11739960_a_at) / Fold change (ACY-1035/veh), VPS36 (ProbeSet 11739960_a_at) / RFU SYPL1 (11715823_x_at) / Fold change /veh SYPL1 (11715823_x_at) / RFU IGFBP7 (11715501_s_at) / Fold change /veh IGFBP7 (11715501_s_at) / RFU REEP3 (11722064_at) / Fold change /veh REEP3 (11722064_at) / RFU IGLL1 (11728026_x_at) / Fold change /veh IGLL1 (11728026_x_at): dose or concentration left out as unconfirmed
Conditions: MV-4-11 cells, 48 hours

Nc1ccc(-c2cccs2)cc1NC(=O)c1ccc2c(c1)cc(C1CC1)n2CCN1CCOCC1 [ACY-1035]
RFU IRGQ (11745062_a_at): 18.74 RFU
